Test results from publication PMC7265341, “Quantifying CDK inhibitor selectivity in live cells” (Nature Communications, 2020).
Read-outs that look alike come from different tables or passages of the source.

Assays:
CDK1/Cyclin E1 = CDK1/Cyclin E1 (Homo sapiens, UniProt P06493); test: NanoBRET live-cell target engagement, CDK1-NanoLuc/Cyclin E1 in HEK-293; format: binding; conditions: CDK1/E1, read-out: Inhibition at 10µM (%)
CDK2/Cyclin E1 = CDK2/Cyclin E1 (Homo sapiens, UniProt P24941); test: NanoBRET live-cell target engagement, CDK2-NanoLuc/Cyclin E1 in HEK-293; format: binding; conditions: CDK2/E1, read-out: Inhibition at 10µM (%)
CDK3/Cyclin E1 = CDK3/Cyclin E1 (Homo sapiens, UniProt Q00526); test: NanoBRET live-cell target engagement, CDK3-NanoLuc/Cyclin E1 in HEK-293; format: binding; conditions: read-out: Inhibition at 10µM (%), CDK3/E1
CDK4/Cyclin D1 = CDK4/Cyclin D1 (Homo sapiens, UniProt P11802); test: NanoBRET live-cell target engagement, NanoLuc-CDK4/Cyclin D1 in HEK-293; format: binding; conditions: CDK4/D1, read-out: Inhibition at 10µM (%)
CDK5/CDK5R1 = CDK5/CDK5R1 (Homo sapiens, UniProt Q00535); test: NanoBRET live-cell target engagement, CDK5-NanoLuc/CDK5R1 in HEK-293; format: binding; conditions: CDK5/CDK5R1, read-out: Inhibition at 10µM (%)
CDK6/Cyclin D1 = CDK6/Cyclin D1 (Homo sapiens, UniProt Q00534); test: NanoBRET live-cell target engagement, NanoLuc-CDK6/Cyclin D1 in HEK-293; format: binding; conditions: CDK6/D1, read-out: Inhibition at 10µM (%)
CDK7 = CDK7 (Homo sapiens, UniProt P50613); test: NanoBRET live-cell target engagement, NanoLuc-CDK7 in HEK-293; format: binding; conditions: CDK7, read-out: Inhibition at 10µM (%)
CDK8/Cyclin C = CDK8/Cyclin C (Homo sapiens, UniProt P49336); test: NanoBRET live-cell target engagement, NanoLuc-CDK8/Cyclin C in HEK-293; format: binding; conditions: for IC50: CDK8/C; for inhibition at 10 µM: read-out: Inhibition at 10µM (%), CDK8/C
CDK9/Cyclin K = CDK9/Cyclin K (Homo sapiens, UniProt P50750); test: NanoBRET live-cell target engagement, NanoLuc-CDK9/Cyclin K in HEK-293; format: binding; conditions: CDK9/K, read-out: Inhibition at 10µM (%)
CDK11A/Cyclin L2 = target: T1, CDK11A/Cyclin L2 (Homo sapiens, UniProt Q9UQ88); test: NanoBRET live-cell target engagement, CDK11A-NanoLuc/Cyclin L2 in HEK-293; format: binding; conditions: CDK11a/L2, read-out: Inhibition at 10µM (%)
T1 sequence (Q9UQ88 1-783): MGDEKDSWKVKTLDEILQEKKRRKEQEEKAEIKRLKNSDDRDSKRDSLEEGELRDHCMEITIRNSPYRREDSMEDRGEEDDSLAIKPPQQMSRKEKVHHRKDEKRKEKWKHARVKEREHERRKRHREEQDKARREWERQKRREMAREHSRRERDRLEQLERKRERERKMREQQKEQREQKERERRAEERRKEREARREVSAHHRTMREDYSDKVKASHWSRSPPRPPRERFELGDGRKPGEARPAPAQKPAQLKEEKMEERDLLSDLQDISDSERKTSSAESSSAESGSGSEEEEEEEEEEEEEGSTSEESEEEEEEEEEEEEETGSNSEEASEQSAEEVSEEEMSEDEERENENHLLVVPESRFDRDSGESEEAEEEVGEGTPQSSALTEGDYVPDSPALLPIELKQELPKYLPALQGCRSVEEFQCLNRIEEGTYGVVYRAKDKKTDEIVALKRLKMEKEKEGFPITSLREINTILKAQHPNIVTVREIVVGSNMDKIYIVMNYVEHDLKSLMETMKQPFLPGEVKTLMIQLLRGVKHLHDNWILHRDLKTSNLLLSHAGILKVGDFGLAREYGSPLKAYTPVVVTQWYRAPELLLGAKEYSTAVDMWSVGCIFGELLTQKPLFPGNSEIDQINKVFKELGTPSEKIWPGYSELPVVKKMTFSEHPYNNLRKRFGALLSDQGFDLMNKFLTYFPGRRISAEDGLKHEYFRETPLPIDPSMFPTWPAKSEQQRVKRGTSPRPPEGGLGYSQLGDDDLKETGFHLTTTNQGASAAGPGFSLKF

CDK11B/Cyclin L2 = CDK11B/Cyclin L2 (Homo sapiens, UniProt P21127); test: NanoBRET live-cell target engagement, CDK11B-NanoLuc/Cyclin L2 in HEK-293; format: binding; conditions: CDK11b/L2, read-out: Inhibition at 10µM (%)
CDK12/Cyclin K = CDK12/Cyclin K (Homo sapiens, UniProt Q9NYV4); test: NanoBRET live-cell target engagement, CDK12-NanoLuc/Cyclin K in HEK-293; format: binding; conditions: CDK12/K, read-out: Inhibition at 10µM (%)
CDK13/Cyclin K = CDK13/Cyclin K (Homo sapiens, UniProt Q14004); test: NanoBRET live-cell target engagement, CDK13-NanoLuc/Cyclin K in HEK-293; format: binding; conditions: CDK13/K, read-out: Inhibition at 10µM (%)
CDK15/Cyclin Y = CDK15/Cyclin Y (Homo sapiens, UniProt Q96Q40); test: NanoBRET live-cell target engagement, NanoLuc-CDK15/Cyclin Y in HEK-293; format: binding; conditions: CDK15/Y, read-out: Inhibition at 10µM (%)
CDK16/Cyclin Y = CDK16/Cyclin Y (Homo sapiens, UniProt Q00536); test: NanoBRET live-cell target engagement, CDK16-NanoLuc/Cyclin Y in HEK-293; format: binding; conditions: CDK16/Y, read-out: Inhibition at 10µM (%)
CDK17/Cyclin Y = CDK17/Cyclin Y (Homo sapiens, UniProt Q00537); test: NanoBRET live-cell target engagement, CDK17-NanoLuc/Cyclin Y in HEK-293; format: binding; conditions: CDK17/Y, read-out: Inhibition at 10µM (%)
CDK18/Cyclin Y = CDK18/Cyclin Y (Homo sapiens, UniProt Q07002); test: NanoBRET live-cell target engagement, CDK18-NanoLuc/Cyclin Y in HEK-293; format: binding; conditions: CDK18/Y, read-out: Inhibition at 10µM (%)
CDK20/Cyclin H = CDK20/Cyclin H (Homo sapiens, UniProt Q8IZL9); test: NanoBRET live-cell target engagement, NanoLuc-CDK20/Cyclin H in HEK-293; format: binding; conditions: CDK20/H, read-out: Inhibition at 10µM (%)
CDK19/Cyclin C = CDK19/Cyclin C (Homo sapiens, UniProt Q9BWU1); test: NanoBRET live-cell target engagement, NanoLuc-CDK19/Cyclin C in HEK-293; conditions: for IC50: IC50 (nM), CDK19/C; for inhibition at 10 µM: read-out: Inhibition at 10µM (%), CDK19/C
Sequence of CDK19/Cyclin C (Q9BWU1 whole entry): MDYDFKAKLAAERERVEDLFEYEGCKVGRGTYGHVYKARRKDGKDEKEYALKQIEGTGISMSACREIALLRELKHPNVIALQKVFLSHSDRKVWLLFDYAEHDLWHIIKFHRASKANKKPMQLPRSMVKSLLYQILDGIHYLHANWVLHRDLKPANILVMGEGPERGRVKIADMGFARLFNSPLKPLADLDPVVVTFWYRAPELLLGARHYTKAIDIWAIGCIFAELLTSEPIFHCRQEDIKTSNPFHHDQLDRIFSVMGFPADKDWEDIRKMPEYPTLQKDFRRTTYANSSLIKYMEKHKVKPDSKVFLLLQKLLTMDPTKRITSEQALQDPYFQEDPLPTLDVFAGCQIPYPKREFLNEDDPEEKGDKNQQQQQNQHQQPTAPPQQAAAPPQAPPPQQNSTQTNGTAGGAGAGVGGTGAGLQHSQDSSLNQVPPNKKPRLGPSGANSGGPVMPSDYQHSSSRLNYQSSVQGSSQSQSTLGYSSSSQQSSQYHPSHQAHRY
Sequence of CDK19/Cyclin C (P24863 whole entry partner): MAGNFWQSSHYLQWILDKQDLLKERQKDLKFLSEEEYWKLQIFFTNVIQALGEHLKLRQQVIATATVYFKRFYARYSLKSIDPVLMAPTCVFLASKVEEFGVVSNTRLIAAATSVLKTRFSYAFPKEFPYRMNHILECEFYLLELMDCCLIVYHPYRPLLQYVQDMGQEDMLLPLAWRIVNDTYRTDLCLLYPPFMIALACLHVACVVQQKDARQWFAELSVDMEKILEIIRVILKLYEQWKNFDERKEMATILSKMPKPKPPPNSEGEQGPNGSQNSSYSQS

Sequence of CDK12/Cyclin K (Q9NYV4 1-1481 isoform Q9NYV4-2): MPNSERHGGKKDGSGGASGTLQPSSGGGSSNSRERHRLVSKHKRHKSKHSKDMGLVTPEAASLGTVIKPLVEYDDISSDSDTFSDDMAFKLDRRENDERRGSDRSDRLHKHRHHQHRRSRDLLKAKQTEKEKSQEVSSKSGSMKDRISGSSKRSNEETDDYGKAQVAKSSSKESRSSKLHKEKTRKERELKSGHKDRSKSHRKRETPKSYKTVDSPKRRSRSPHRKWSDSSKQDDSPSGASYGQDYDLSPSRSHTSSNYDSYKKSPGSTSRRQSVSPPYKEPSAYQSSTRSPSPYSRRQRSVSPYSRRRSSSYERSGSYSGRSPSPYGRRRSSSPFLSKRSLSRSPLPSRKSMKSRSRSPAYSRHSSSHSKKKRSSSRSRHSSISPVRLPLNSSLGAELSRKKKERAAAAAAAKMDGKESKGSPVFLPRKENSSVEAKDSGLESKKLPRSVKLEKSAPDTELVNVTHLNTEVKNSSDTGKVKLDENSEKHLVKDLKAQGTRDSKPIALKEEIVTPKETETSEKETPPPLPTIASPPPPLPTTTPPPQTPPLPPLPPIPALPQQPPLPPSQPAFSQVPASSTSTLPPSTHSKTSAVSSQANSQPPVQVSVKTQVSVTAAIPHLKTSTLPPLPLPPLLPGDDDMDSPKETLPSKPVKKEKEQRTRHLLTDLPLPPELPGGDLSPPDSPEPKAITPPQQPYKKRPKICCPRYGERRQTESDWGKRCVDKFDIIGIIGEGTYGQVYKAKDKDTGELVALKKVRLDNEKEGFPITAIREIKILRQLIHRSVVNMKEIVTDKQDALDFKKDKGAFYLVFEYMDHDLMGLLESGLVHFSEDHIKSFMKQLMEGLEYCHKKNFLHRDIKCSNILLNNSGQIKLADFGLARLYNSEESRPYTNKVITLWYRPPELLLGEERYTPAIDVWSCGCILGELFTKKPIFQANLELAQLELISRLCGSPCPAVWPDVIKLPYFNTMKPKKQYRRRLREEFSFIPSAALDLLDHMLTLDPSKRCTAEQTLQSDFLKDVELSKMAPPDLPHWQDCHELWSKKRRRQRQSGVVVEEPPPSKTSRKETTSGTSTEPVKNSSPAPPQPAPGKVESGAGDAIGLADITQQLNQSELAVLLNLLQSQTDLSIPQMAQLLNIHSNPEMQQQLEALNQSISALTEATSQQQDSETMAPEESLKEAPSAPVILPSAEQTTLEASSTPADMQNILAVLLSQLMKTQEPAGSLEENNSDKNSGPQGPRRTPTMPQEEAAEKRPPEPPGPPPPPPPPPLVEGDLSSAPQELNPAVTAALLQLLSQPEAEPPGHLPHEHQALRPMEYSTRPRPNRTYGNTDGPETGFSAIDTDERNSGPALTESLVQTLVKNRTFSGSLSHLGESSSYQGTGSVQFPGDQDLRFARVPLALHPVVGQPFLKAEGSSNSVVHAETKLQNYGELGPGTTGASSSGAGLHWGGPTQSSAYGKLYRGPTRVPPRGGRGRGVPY
Sequence of CDK12/Cyclin K (O75909 whole entry partner): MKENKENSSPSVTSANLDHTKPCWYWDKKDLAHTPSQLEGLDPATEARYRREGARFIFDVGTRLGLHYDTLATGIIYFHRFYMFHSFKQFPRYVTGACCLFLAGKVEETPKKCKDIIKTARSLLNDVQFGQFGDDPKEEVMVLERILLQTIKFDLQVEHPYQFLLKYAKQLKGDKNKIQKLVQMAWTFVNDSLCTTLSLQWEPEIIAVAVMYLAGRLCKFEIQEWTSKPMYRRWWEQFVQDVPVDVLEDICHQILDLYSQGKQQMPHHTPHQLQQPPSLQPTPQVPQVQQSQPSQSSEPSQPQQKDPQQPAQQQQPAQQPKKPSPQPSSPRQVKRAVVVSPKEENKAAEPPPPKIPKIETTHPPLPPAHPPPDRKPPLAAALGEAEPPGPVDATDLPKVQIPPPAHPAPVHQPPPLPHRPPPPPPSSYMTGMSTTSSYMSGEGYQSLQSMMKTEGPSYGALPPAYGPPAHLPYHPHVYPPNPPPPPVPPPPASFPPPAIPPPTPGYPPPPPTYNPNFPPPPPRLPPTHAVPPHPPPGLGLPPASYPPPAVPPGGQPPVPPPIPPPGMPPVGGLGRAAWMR
Sequence of CDK18/Cyclin Y (Q07002 whole entry): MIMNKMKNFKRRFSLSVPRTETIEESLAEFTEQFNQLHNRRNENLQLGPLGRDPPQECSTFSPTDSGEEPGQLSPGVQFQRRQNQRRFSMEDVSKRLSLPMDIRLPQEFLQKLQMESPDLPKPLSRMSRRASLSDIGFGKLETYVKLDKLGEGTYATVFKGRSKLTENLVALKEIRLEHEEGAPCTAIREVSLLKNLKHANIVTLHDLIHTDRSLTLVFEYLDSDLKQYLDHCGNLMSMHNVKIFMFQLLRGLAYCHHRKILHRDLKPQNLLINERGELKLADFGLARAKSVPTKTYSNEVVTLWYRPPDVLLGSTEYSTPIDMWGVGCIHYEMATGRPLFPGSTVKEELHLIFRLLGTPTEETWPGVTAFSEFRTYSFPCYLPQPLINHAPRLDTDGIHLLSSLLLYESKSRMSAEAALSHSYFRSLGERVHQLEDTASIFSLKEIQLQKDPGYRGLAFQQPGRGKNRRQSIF
Sequence of CDK18/Cyclin Y (Q8ND76 whole entry partner): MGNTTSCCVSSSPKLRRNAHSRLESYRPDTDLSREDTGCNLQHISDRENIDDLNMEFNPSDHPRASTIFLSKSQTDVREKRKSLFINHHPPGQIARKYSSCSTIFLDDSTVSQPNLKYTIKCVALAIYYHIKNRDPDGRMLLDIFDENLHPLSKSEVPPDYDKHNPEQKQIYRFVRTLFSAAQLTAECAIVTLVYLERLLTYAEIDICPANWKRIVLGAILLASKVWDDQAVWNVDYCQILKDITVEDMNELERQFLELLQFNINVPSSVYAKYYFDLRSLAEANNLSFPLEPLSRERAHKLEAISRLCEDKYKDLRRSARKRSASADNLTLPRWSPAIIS
Sequence of CDK17/Cyclin Y (Q00537 whole entry): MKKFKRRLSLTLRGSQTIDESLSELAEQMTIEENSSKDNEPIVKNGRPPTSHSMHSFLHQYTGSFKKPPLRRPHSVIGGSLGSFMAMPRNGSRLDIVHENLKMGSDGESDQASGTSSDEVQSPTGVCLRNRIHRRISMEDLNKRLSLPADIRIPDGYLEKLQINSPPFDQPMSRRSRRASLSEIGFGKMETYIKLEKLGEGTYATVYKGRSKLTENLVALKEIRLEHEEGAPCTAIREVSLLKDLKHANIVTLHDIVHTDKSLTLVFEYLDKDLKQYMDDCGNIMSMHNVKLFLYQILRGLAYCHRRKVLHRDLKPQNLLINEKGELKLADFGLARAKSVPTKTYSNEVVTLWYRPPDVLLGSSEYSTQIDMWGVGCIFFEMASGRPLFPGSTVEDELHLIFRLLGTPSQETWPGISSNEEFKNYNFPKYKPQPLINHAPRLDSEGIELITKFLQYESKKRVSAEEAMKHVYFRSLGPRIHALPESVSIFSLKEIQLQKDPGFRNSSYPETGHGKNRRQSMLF
Sequence of CDK17/Cyclin Y (Q8ND76 whole entry partner): as the sequence (Q8ND76 whole entry partner) above
Sequence of CDK7 (P50613 whole entry): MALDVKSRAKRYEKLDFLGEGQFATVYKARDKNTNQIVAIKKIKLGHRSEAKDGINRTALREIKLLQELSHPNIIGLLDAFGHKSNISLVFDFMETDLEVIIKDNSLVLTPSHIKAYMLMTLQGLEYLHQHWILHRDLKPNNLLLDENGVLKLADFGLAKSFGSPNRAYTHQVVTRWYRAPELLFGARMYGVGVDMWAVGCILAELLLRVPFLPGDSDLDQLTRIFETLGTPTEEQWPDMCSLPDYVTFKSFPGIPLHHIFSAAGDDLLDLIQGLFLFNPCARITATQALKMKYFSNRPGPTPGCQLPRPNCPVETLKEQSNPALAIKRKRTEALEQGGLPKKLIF
Sequence of CDK9/Cyclin K (P50750 whole entry): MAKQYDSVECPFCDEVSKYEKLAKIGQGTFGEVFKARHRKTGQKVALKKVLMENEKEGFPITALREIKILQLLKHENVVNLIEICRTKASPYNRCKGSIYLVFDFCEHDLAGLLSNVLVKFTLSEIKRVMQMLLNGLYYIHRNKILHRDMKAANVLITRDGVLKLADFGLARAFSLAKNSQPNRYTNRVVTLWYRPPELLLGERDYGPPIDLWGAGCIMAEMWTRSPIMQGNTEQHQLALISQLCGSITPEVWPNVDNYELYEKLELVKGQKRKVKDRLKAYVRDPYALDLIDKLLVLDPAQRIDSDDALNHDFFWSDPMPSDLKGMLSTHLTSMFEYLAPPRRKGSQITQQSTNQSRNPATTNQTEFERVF
Sequence of CDK9/Cyclin K (O75909 whole entry partner): as the sequence (O75909 whole entry partner) above

SMILES: Cn1cc(-c2ccc(-c3cncc(Cl)c3N3CCC4(CCNC4=O)CC3)cc2)cn1 [CCT251545]
- inhibition at 10 µM (CDK1/Cyclin E1; average): 15.4%
- inhibition at 10 µM (CDK1/Cyclin E1; experiment 1): 21.3%
- inhibition at 10 µM (CDK1/Cyclin E1; experiment 2): 9.4%
- inhibition at 10 µM (CDK2/Cyclin E1; average): -6.3%
- inhibition at 10 µM (CDK2/Cyclin E1; experiment 1): -6.4%
- inhibition at 10 µM (CDK2/Cyclin E1; experiment 2): -6.1%
- inhibition at 10 µM (CDK3/Cyclin E1; average): -2.7%
- inhibition at 10 µM (CDK3/Cyclin E1; experiment 1): -4.5%
- inhibition at 10 µM (CDK3/Cyclin E1; experiment 2): -1%
- inhibition at 10 µM (CDK4/Cyclin D1; average): 6.9%
- inhibition at 10 µM (CDK4/Cyclin D1; experiment 1): -6.1%
- inhibition at 10 µM (CDK4/Cyclin D1; experiment 2): 19.9%
- inhibition at 10 µM (CDK5/CDK5R1; average): 16.2%
- inhibition at 10 µM (CDK5/CDK5R1; experiment 1): 23.2%
- inhibition at 10 µM (CDK5/CDK5R1; experiment 2): 9.2%
- inhibition at 10 µM (CDK6/Cyclin D1; average): -5%
- inhibition at 10 µM (CDK6/Cyclin D1; experiment 1): -11.6%
- inhibition at 10 µM (CDK6/Cyclin D1; experiment 2): 1.5%
- inhibition at 10 µM (CDK7; average): -8.2%
- inhibition at 10 µM (CDK7; experiment 1): -5.4%
- inhibition at 10 µM (CDK7; experiment 2): -11.1%
- Kd (CDK8/Cyclin C): ≤ 10 nM
- IC50 (CDK8/Cyclin C; IC50 (nM), experiment 1): 2 nM
- IC50 (CDK8/Cyclin C; IC50 (nM), experiment 2): 2 nM
- IC50 (CDK8/Cyclin C; IC50 (nM), experiment 3): 9 nM
- IC50 (CDK8/Cyclin C; IC50 for CDK/cyclin complexes, live HEK-293, 2 h, mean ± S.E.M. (n=3) or mean (n=2)): 6 nM
- inhibition at 10 µM (CDK8/Cyclin C; average): 97.8%
- inhibition at 10 µM (CDK8/Cyclin C; experiment 1): 98.8%
- inhibition at 10 µM (CDK8/Cyclin C; experiment 2): 96.9%
- inhibition at 10 µM (CDK9/Cyclin K; average): 15.8%
- inhibition at 10 µM (CDK9/Cyclin K; experiment 1): 9.2%
- inhibition at 10 µM (CDK9/Cyclin K; experiment 2): 22.5%
- inhibition at 10 µM (CDK11A/Cyclin L2; average): 4.8%
- inhibition at 10 µM (CDK11A/Cyclin L2; experiment 1): -0.8%
- inhibition at 10 µM (CDK11A/Cyclin L2; experiment 2): 10.3%
- inhibition at 10 µM (CDK11B/Cyclin L2; average): -1%
- inhibition at 10 µM (CDK11B/Cyclin L2; experiment 1): -3.6%
- inhibition at 10 µM (CDK11B/Cyclin L2; experiment 2): 1.7%
- inhibition at 10 µM (CDK12/Cyclin K; average): -2.2%
- inhibition at 10 µM (CDK12/Cyclin K; experiment 1): 2.5%
- inhibition at 10 µM (CDK12/Cyclin K; experiment 2): -6.8%
- inhibition at 10 µM (CDK13/Cyclin K; average): 7.2%
- inhibition at 10 µM (CDK13/Cyclin K; experiment 1): 7.3%
- inhibition at 10 µM (CDK13/Cyclin K; experiment 2): 7.1%
- inhibition at 10 µM (CDK15/Cyclin Y; average): 1.4%
- inhibition at 10 µM (CDK15/Cyclin Y; experiment 1): 2.4%
- inhibition at 10 µM (CDK15/Cyclin Y; experiment 2): 0.46%
- inhibition at 10 µM (CDK16/Cyclin Y; experiment 1): 1.8%
- inhibition at 10 µM (CDK16/Cyclin Y; experiment 2): -12.1%
- inhibition at 10 µM (CDK17/Cyclin Y; average): 1.3%
- inhibition at 10 µM (CDK17/Cyclin Y; experiment 1): 5.9%
- inhibition at 10 µM (CDK17/Cyclin Y; experiment 2): -3.2%
- inhibition at 10 µM (CDK18/Cyclin Y; average): 10.8%
- inhibition at 10 µM (CDK18/Cyclin Y; experiment 1): 2.3%
- inhibition at 10 µM (CDK18/Cyclin Y; experiment 2): 19.2%
- inhibition at 10 µM (CDK20/Cyclin H; experiment 1): 3.3%
- inhibition at 10 µM (CDK20/Cyclin H; experiment 2): 5.3%
- Kd (CDK19/Cyclin C): ≤ 10 nM
- IC50 (CDK19/Cyclin C; experiment 2): 1.5 nM
- IC50 (CDK19/Cyclin C; experiment 3): 10 nM
- inhibition at 10 µM (CDK19/Cyclin C; average): 94%
- inhibition at 10 µM (CDK19/Cyclin C; experiment 1): 97.3%
- inhibition at 10 µM (CDK19/Cyclin C; experiment 2): 90.6%
